Measured values published in US20230085307A1, “PYRIDAZINONE COMPOUND AND HERBICIDE” (NISSAN CHEMICAL CORPORATION, priority 2019, published 2023).

Legend:
[1] = tested on: late watergrass; assay: Test Example 1: herbicidal activity, application before weed generation under submerged conditions (Table 16, symbol A); assay type: in vivo, late watergrass (Echinochloa oryzicola); details: amount of applied herbicide 320 g/ha
Procedure, shortened: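 Alluvial soil was flooded to 4 cm depth, weed seeds were sown mixed and 2.5-leaf rice seedlings were transplanted. On sowing day, the compound's emulsion, diluted in water to a set dose, was applied to the water surface. Plants grew at 25–30 °C and were scored 0–5 after three weeks.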

[2] = tested on: oval-leafed pondweed; assay: Test Example 2: herbicidal activity, application during weed generation under submerged conditions (Table 17, symbol C); assay type: in vivo, oval-leafed pondweed (Monochoria vaginalis); details: AAH 320 g/ha; application during weed generation, submerged conditions
Procedure, shortened: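 Steps: fill Wagner pots with alluvial soil; add water to give 4 cm depth; sow the species mixed; grow under glass at 25–30° C.; at 1–2 leaves apply water-diluted emulsion formulation to the water surface at a fixed herbicide amount; score after 3 weeks.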

[3] = tested on: barnyard grass; assay: Test Example 3: herbicidal effect by foliage application, Wagner pot (Table 18, symbol H); assay type: in vivo, barnyard grass (Echinochloa crus-galli); details: 320 g/ha
Procedure, shortened: (§1)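 Plants were sown in alluvial soil held under 0.1–0.5 cm standing water and grown 14 days in a greenhouse at 25–30 °C. An emulsifiable formulation, water-diluted to the set dose, was then sprayed onto the foliage, and effects were scored three weeks later using previously defined criteria.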

[4] = tested on: Chinese sprangletop; assay: Test Example 3: herbicidal effect by foliage application, Wagner pot (Table 18, symbol D); assay type: in vivo, chinese sprangletop (Leptochloa chinensis); details: 320 g/ha
Procedure, shortened: as §1

[5] = tested on: southern crabgrass; assay: Test Example 4: herbicidal effect by soil treatment (Table 19, symbol F); assay type: in vivo, southern crabgrass (Digitaria ciliaris); details: amount of applied herbicide 320 g/ha
Procedure, shortened: (§2)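 Emulsion of test compound, water-diluted to predetermined amount, sprayed on soil after sowing (seed depth ~1.5 cm, sterilized diluvial soil). Greenhouse, 25–30° C. Effect graded at three weeks post-spray.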

[6] = tested on: green foxtail; assay: Test Example 4: herbicidal effect by soil treatment (Table 19, symbol G); assay type: in vivo, green foxtail (Setaria viridis); details: amount of applied herbicide 320 g/ha
Procedure, shortened: as §2

[7] = tested on: barnyard grass; assay: Test Example 4: herbicidal effect by soil treatment (Table 19, symbol H); assay type: in vivo, barnyard grass (Echinochloa crus-galli); details: amount of applied herbicide 320 g/ha
Procedure, shortened: as §2

[8] = tested on: blackgrass; assay: Test Example 4: herbicidal effect by soil treatment (Table 19, symbol J); assay type: in vivo, blackgrass (Alopecurus myosuroides); details: amount of applied herbicide 320 g/ha
Procedure, shortened: as §2

[9] = tested on: windgrass; assay: Test Example 4: herbicidal effect by soil treatment (Table 19, symbol L); assay type: in vivo, windgrass (Apera spica-venti); details: amount of applied herbicide 320 g/ha
Procedure, shortened: as §2

[10] = tested on: redroot pigweed; assay: Test Example 4: herbicidal effect by soil treatment (Table 19, symbol N); assay type: in vivo, redroot pigweed (Amaranthus retroflexus); details: amount of applied herbicide 320 g/ha
Procedure, shortened: as §2

[11] = tested on: chickweed; assay: Test Example 4: herbicidal effect by soil treatment (Table 19, symbol P); assay type: in vivo, common chickweed (Stellaria media); details: amount of applied herbicide 320 g/ha
Procedure, shortened: as §2

[12] = tested on: southern crabgrass; assay: Test Example 5: herbicidal effect by foliage application, plastic box (Table 20, symbol F); assay type: in vivo, southern crabgrass (Digitaria ciliaris); details: foliage application after 14-day growth, evaluated three weeks after application; for herbicidal effect on F: southern crabgrass (evaluation grade 0-5): 320 g/ha; for Herbicidal effect by foliage application, F: southern crabgrass: amount of applied herbicide 320 g/ha
Procedure, shortened: (§3)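 Post-emergence foliar test in sterilized diluvial soil. Compound applied as water-diluted emulsion at a predetermined rate to 14-day-old plants; evaluation at three weeks.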

[13] = tested on: green foxtail; assay: Test Example 5: herbicidal effect by foliage application, plastic box (Table 20, symbol G); assay type: in vivo, green foxtail (Setaria viridis); details: foliage application after 14-day growth, evaluated three weeks after application; for herbicidal effect on G: green foxtail (evaluation grade 0-5): 320 g/ha; for Herbicidal effect by foliage application, G: green foxtail: amount of applied herbicide 320 g/ha
Procedure, shortened: as §3

[14] = tested on: blackgrass; assay: Test Example 5: herbicidal effect by foliage application, plastic box (Table 20, symbol J); assay type: in vivo, blackgrass (Alopecurus myosuroides); details: foliage application after 14-day growth, evaluated three weeks after application; for herbicidal effect on J: blackgrass (evaluation grade 0-5): 320 g/ha; for Herbicidal effect by foliage application, J: blackgrass: amount of applied herbicide 320 g/ha
Procedure, shortened: as §3

[15] = tested on: redroot pigweed; assay: Test Example 5: herbicidal effect by foliage application, plastic box (Table 20, symbol N); assay type: in vivo, redroot pigweed (Amaranthus retroflexus); details: foliage application after 14-day growth, evaluated three weeks after application; for herbicidal effect on N: redroot pigweed (evaluation grade 0-5): 320 g/ha; for Herbicidal effect by foliage application, N: redroot pigweed: amount of applied herbicide 320 g/ha
Procedure, shortened: as §3

[16] = tested on: persian speedwell; assay: Test Example 5: herbicidal effect by foliage application, plastic box (Table 20, symbol R); assay type: in vivo, Persian speedwell (Veronica persica); details: foliage application after 14-day growth, evaluated three weeks after application; for herbicidal effect on R: persian speedwell (evaluation grade 0-5): 320 g/ha; for Herbicidal effect by foliage application, R: persian speedwell: amount of applied herbicide 320 g/ha
Procedure, shortened: as §3

Row | Structure (SMILES) | Herbicidal effect, A: late watergrass [1] | herbicidal effect rating, C: oval-leafed pondweed [2] | herbicidal effect on barnyard grass (H) [3] | herbicidal effect on Chinese sprangletop (D) [4] | Herbicidal effect by soil treatment, F: southern crabgrass [5] | Herbicidal effect by soil treatment, G: green foxtail [6] | Herbicidal effect by soil treatment, H: barnyard grass [7] | Herbicidal effect by soil treatment, J: blackgrass [8] | Herbicidal effect by soil treatment, L: windgrass [9] | Herbicidal effect by soil treatment, N: redroot pigweed [10] | Herbicidal effect by soil treatment, P: chickweed [11] | herbicidal effect on F: southern crabgrass (evaluation grade 0-5) [12] | herbicidal effect on G: green foxtail (evaluation grade 0-5) [13] | herbicidal effect on J: blackgrass (evaluation grade 0-5) [14] | herbicidal effect on N: redroot pigweed (evaluation grade 0-5) [15] | herbicidal effect on R: persian speedwell (evaluation grade 0-5) [16] | Herbicidal effect by foliage application, F: southern crabgrass [12] | Herbicidal effect by foliage application, G: green foxtail [13] | Herbicidal effect by foliage application, J: blackgrass [14] | Herbicidal effect by foliage application, N: redroot pigweed [15] | other results
1 | CCCC(=O)Oc1c(C)nn(C)c(=O)c1-c1c(-c2ccc(F)cc2OCC)sc2c(Cl)cccc12 [4-036] | 4 (Herbicidal rate of 70% or more and less than 90%) | 0 (Herbicidal rate of 5% or less (almost no effect)) | 5 (Herbicidal rate of 90% or more (almost completely withered)) | 5 (Herbicidal rate of 90% or more (almost completely withered)) | 4 (Herbicidal rate of 70% or more and less than 90%) | 3 (Herbicidal rate of 40% or more and less than 70%) | 3 (Herbicidal rate of 40% or more and less than 70%) | 0 (Herbicidal rate of 5% or less (almost no effect)) | 0 (Herbicidal rate of 5% or less (almost no effect)) | 4 (Herbicidal rate of 70% or more and less than 90%) | 2 (Herbicidal rate of 20% or more and less than 40%) | 4 (Herbicidal rate of 70% or more and less than 90%) | 5 (Herbicidal rate of 90% or more (almost completely withered)) | 3 (Herbicidal rate of 40% or more and less than 70%) | 5 (Herbicidal rate of 90% or more (almost completely withered)) | 4 (Herbicidal rate of 70% or more and less than 90%) | – | – | – | – | –
2 | CCCC(=O)Oc1c(C)nn(C)c(=O)c1-c1c(-c2ccc(C(F)(F)F)cc2)sc2c(F)cccc12 [4-045] | 4 (Herbicidal rate of 70% or more and less than 90%) | 0 (Herbicidal rate of 5% or less (almost no effect)) | 5 (Herbicidal rate of 90% or more (almost completely withered)) | 3 (Herbicidal rate of 40% or more and less than 70%) | 0 (Herbicidal rate of 5% or less (almost no effect)) | 0 (Herbicidal rate of 5% or less (almost no effect)) | 0 (Herbicidal rate of 5% or less (almost no effect)) | 0 (Herbicidal rate of 5% or less (almost no effect)) | 3 (Herbicidal rate of 40% or more and less than 70%) | 4 (Herbicidal rate of 70% or more and less than 90%) | 3 (Herbicidal rate of 40% or more and less than 70%) | 0 (Herbicidal rate of 5% or less (almost no effect)) | 0 (Herbicidal rate of 5% or less (almost no effect)) | 0 (Herbicidal rate of 5% or less (almost no effect)) | 4 (Herbicidal rate of 70% or more and less than 90%) | 5 (Herbicidal rate of 90% or more (almost completely withered)) | – | – | – | – | –
3 | Cc1nn(C)c(=O)c(-c2c(-c3ccc(Cl)c(F)c3)sc3c(F)cccc23)c1O [4-054] | 3 (Herbicidal rate of 40% or more and less than 70%) | 0 (Herbicidal rate of 5% or less (almost no effect)) | 2 (Herbicidal rate of 20% or more and less than 40%) | 0 (Herbicidal rate of 5% or less (almost no effect)) | 0 (Herbicidal rate of 5% or less (almost no effect)) | 0 (Herbicidal rate of 5% or less (almost no effect)) | 0 (Herbicidal rate of 5% or less (almost no effect)) | 0 (Herbicidal rate of 5% or less (almost no effect)) | 0 (Herbicidal rate of 5% or less (almost no effect)) | 2 (Herbicidal rate of 20% or more and less than 40%) | 4 (Herbicidal rate of 70% or more and less than 90%) | 2 (Herbicidal rate of 20% or more and less than 40%) | 3 (Herbicidal rate of 40% or more and less than 70%) | 0 (Herbicidal rate of 5% or less (almost no effect)) | 5 (Herbicidal rate of 90% or more (almost completely withered)) | 5 (Herbicidal rate of 90% or more (almost completely withered)) | – | – | – | – | –
4 | Cc1nn(C)c(=O)c(-c2c(-c3ccc(Cl)cc3)sc3c(C)cccc23)c1O [4-102] | 4 (Herbicidal rate of 70% or more and less than 90%) | 0 (Herbicidal rate of 5% or less (almost no effect)) | 1 (Herbicidal rate of 5% or more and less than 20%) | 3 (Herbicidal rate of 40% or more and less than 70%) | 0 (Herbicidal rate of 5% or less (almost no effect)) | 0 (Herbicidal rate of 5% or less (almost no effect)) | 0 (Herbicidal rate of 5% or less (almost no effect)) | 0 (Herbicidal rate of 5% or less (almost no effect)) | 0 (Herbicidal rate of 5% or less (almost no effect)) | 4 (Herbicidal rate of 70% or more and less than 90%) | 0 (Herbicidal rate of 5% or less (almost no effect)) | – | – | – | – | – | 0 (Herbicidal rate of 5% or less (almost no effect)) | 0 (Herbicidal rate of 5% or less (almost no effect)) | 0 (Herbicidal rate of 5% or less (almost no effect)) | 5 (Herbicidal rate of 90% or more (almost completely withered)) | Herbicidal effect by foliage application, R: persian speedwell [16]: 5 (Herbicidal rate of 90% or more (almost completely withered))
5 | CCCC(=O)Oc1c(C)nn(C)c(=O)c1-c1c(-c2ccc(C#N)cc2)sc2cc(F)c(F)cc12 [5-026] | 3 (Herbicidal rate of 40% or more and less than 70%) | 0 (Herbicidal rate of 5% or less (almost no effect)) | 3 (Herbicidal rate of 40% or more and less than 70%) | 4 (Herbicidal rate of 70% or more and less than 90%) | – | – | – | – | – | – | – | – | – | – | – | – | 0 (Herbicidal rate of 5% or less (almost no effect)) | 0 (Herbicidal rate of 5% or less (almost no effect)) | 0 (Herbicidal rate of 5% or less (almost no effect)) | 2 (Herbicidal rate of 20% or more and less than 40%) | F: southern crabgrass, herbicidal effect grade [5]: 0 (Herbicidal rate of 5% or less (almost no effect)); G: green foxtail, herbicidal effect grade [6]: 0 (Herbicidal rate of 5% or less (almost no effect)); H: barnyard grass, herbicidal effect grade [7]: 0 (Herbicidal rate of 5% or less (almost no effect)); J: blackgrass, herbicidal effect grade [8]: 0 (Herbicidal rate of 5% or less (almost no effect)); L: windgrass, herbicidal effect grade [9]: 0 (Herbicidal rate of 5% or less (almost no effect)); N: redroot pigweed, herbicidal effect grade [10]: 4 (Herbicidal rate of 70% or more and less than 90%); P: chickweed, herbicidal effect grade [11]: 0 (Herbicidal rate of 5% or less (almost no effect)); Herbicidal effect by foliage application, R: persian speedwell [16]: 4 (Herbicidal rate of 70% or more and less than 90%)
